The source of these data is patent publication US20240368173A1, “TRICYCLIC GPR65 MODULATORS” (PATHIOS THERAPEUTICS LIMITED, priority 2021, published 2024).

One assay deals with human recombinant GPR65 (Homo sapiens, UniProt Q8IYL9). The assay is described as follows: Human GPR65 cAMP HTRF antagonist assay.
Chain of human recombinant GPR65 (Q8IYL9 whole entry): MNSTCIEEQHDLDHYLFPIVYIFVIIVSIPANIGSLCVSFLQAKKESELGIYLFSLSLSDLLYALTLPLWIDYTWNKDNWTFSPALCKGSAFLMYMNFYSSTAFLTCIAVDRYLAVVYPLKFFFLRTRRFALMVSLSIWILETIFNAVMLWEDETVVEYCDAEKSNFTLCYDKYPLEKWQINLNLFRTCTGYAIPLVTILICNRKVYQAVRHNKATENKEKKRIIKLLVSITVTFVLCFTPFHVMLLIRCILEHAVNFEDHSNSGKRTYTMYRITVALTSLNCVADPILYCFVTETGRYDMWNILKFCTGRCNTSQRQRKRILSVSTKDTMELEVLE
Details: not given
It is filed as cell-based. An excerpt:
In one preferred embodiment, the compound prevents the increase in cytoplasmic cAMP levels expected following GPR65 activation at acidic pH. This prevention of cAMP accumulation in turn prevents downstream signalling through ICER, as described above. The “Human GPR65 cyclic adenosine monophosphate (cAMP) Homogeneous Time Resolved Fluorescence (HTRF) antagonist assay”, or simply “cAMP assay”, as described in the accompanying examples, can be used to measure the potency of GPR65 modulators, which is expressed as the concentration of compound required to reduce the increase in cAMP concentration upon GPR65 activation by 50% (i.e. an IC50).
Human GPR65 Cyclic Adenosine Monophosphate (cAMP) Homogeneous Time Resolved Fluorescence (HTRF) Antagonist Assay Procedure
IC50 data was obtained by the following procedure:
1321N1 human astrocytoma cells stably expressing human recombinant GPR65 (1321N1-hrGPR65 cells, EuroscreenFast) were cultured according to the vendor's instructions.
Compounds were tested for their ability to antagonise GPR65, through measuring the concentration of cytoplasmic cAMP following treatment of the cells at a pH of 7.2 to activate GPR65 signalling and addition of the compound to be tested. The extent to which the expected rise in cAMP concentration upon GPR65 activation was suppressed by the added compound is indicative of its potency. The assay was carried out according to EuroscreenFast assay Methodology as follows.
On the day of the assay, test compounds were added to 384-well, low volume, white microtiter plates by acoustic dispensing. KRH buffer (5 mM KCl, 1.25 mM MgSO4, 124 mM NaCl, 25 mM HEPES, 13.3 mM Glucose, 1.25 mM KH2PO4 and 1.45 mM CaCl2) was adjusted to pH 6.5, pH 7.6 and pH 8.4 by adding NaOH. 1321N1-hGPR65 cells were rapidly thawed and diluted in KRH, pH 7.6 prior to centrifugation at 300×g for 5 min and resuspension in assay buffer (KRH, pH 7.6, supplemented with 1 mM 3-isobutyl-1-methylxanthine (IBMX) and 200 μM ethylenediaminetetraacetic acid (EDTA)). Cells were added to assay plates at a density of 2,000 cells per well in a volume of 5 μl. Assay plates were briefly centrifuged at 100×g and then incubated at room temperature for 30 min. Cells were stimulated by the addition of 5 μL KRH, pH 6.5, to achieve an assay pH of 7.2, while control wells received 5 μl KRH, pH 8.4 to achieve an assay pH of 7.9. Assay plates were briefly centrifuged at 100×g and then incubated at room temperature for 30 min.
Accumulation of cAMP was detected by cAMP HTRF kit (Cisbio). d2-labeled cAMP and cryptate-labeled anti-cAMP antibody in Lysis and Detection Buffer (Cisbio) were added to assay plates, and the plates were incubated at room temperature for 1 h. HTRF measurements were performed using a Pherastar FSX instrument. Acceptor and donor emission signals were measured at 665 nm and 620 nm, respectively, and HTRF ratios were calculated as signal665 nm/signal620 nm×10^4. Data were normalised to high and low control values and fitted with 4-parameter logistic regression to determine hGPR65 IC50 values for the test compounds, which are shown in Table 1.
Regarding `O=C(Nc1cc(Cl)c(I)cc1F)N1C2CCC1c1n[nH]c(=O)cc1C2` (racemic) [Compound 74, (±)-N-(5-Chloro-2-fluoro-4-iodophenyl)-3-oxo-3,5,6,7,8,9-hexahydro-2H-6,9-epiminocyclohepta[c]pyridazine-10-carboxamide], the IC50 (in general, the point on the concentration scale where inhibition reaches its midpoint) was under 500 nM.
Still for that read-out and setting: as for `O=C(Nc1ccc(Cl)c(Cl)c1)N1C2CCC1c1n[nH]c(=O)cc1C2` (racemic) [Compound 75, (±)-N-(3,4-Dichlorophenyl)-3-oxo-3,5,6,7,8,9-hexahydro-2H-6,9-epiminocyclohepta[c]pyridazine-10-carboxamide], the figure is under 500 nM.
The same measure, in the same setting: with `O=C(Nc1ccc(C(F)(F)F)c(Cl)c1)N1C2CCC1c1n[nH]c(=O)cc1C2` (racemic) [Compound 76, (±)-N-(3-Chloro-4-(trifluoromethyl)phenyl)-3-oxo-3,5,6,7,8,9-hexahydro-2H-6,9-epiminocyclohepta[c]pyridazine-10-carboxamide] the figure was under 500 nM; with `O=C(Nc1cc(Cl)c(Cl)cc1F)N1C2CCC1c1ccnnc1C2` (racemic) [Compound 84, (±)-N-(4,5-Dichloro-2-fluorophenyl)-6,7,8,9-tetrahydro-5H-5,8-epiminocyclohepta[c]pyridazine-10-carboxamide], under 500 nM; with `O=C(Nc1cc(Cl)c(Cl)cc1F)N1C2CCC1c1ncnc(F)c1C2` (racemic) [Compound 87, (±)—N-(4,5-Dichloro-2-fluorophenyl)-4-fluoro-6,7,8,9-tetrahydro-5H-6,9-epiminocyclohepta[d]pyrimidine-10-carboxamide], under 500 nM.
In the case of `C=C1c2c(ccnc2F)C2CCC1N2C(=O)Nc1cc(Cl)c(Cl)cc1F` (racemic) [Compound 154, (±)—N-(4,5-Dichloro-2-fluorophenyl)-1-fluoro-9-methylene-6,7,8,9-tetrahydro-5H-5,8-epiminocyclohepta[c]pyridine-10-carboxamide], the IC50 was under 500 nM.
Still for that read-out and setting: as for `O=C1c2c(ccnc2F)C2CCC1N2C(=O)Nc1cc(Cl)c(Cl)cc1F` (racemic) [Compound 155, (±)—N-(4,5-Dichloro-2-fluorophenyl)-1-fluoro-9-oxo-6,7,8,9-tetrahydro-5H-5,8-epiminocyclohepta[c]pyridine-10-carboxamide], the figure is under 500 nM.
The same measure, in the same setting: with `O=C(Nc1cc(Cl)c(C(F)(F)F)cc1F)N1C2CCC1[C@H](F)c1c2ccnc1F` (mixture of isomers) [Compound 157, (±)-(9R)—N-(5-Chloro-2-fluoro-4-(trifluoromethyl)phenyl)-1,9-difluoro-6,7,8,9-tetrahydro-5H-5,8-epiminocyclohepta[c]pyridine-10-carboxamide] the figure was under 500 nM; with `O=C(Nc1cc(Cl)c(C(F)(F)F)cc1F)N1C2CCC1C(F)(F)c1c2ccnc1F` (racemic) [Compound 183, (±)—N-(5-Chloro-2-fluoro-4-(trifluoromethyl)phenyl)-1,9,9-trifluoro-6,7,8,9-tetrahydro-5H-5,8-epiminocyclohepta[c]pyridine-10-carboxamide], under 500 nM; with `O=C(Nc1cc(Cl)c(-c2ccc3nonc3c2)cc1F)N1C2CCC1C(F)(F)c1c2ccnc1F` (racemic) [Compound 289, (±)-N-(4-(Benzo[c][1,2,5]oxadiazol-5-yl)-5-chloro-2-fluorophenyl)-1,9,9-trifluoro-6,7,8,9-tetrahydro-5H-5,8-epiminocyclohepta[c]pyridine-10-carboxamide], under 500 nM.
The same measure, in the same setting: with `O=C(Nc1cc(Cl)c(-c2ccc(OCC(F)(F)F)nc2)cc1F)N1C2CCC1C(F)(F)c1c2ccnc1F` (racemic) [Compound 290, (±)-N-(5-Chloro-2-fluoro-4-(6-(2,2,2-trifluoroethoxy)pyridin-3-yl)phenyl)-1,9,9-trifluoro-6,7,8,9-tetrahydro-5H-5,8-epiminocyclohepta[c]pyridine-10-carboxamide] the figure was under 500 nM; with `O=C(Nc1cc(Cl)c(C(F)(F)F)cc1F)N1[C@H]2CC[C@@H]1c1n[nH]c(=O)cc1C2` [Compound 18, (6S,9R)-N-(5-Chloro-2-fluoro-4-(trifluoromethyl)phenyl)-3-oxo-3,5,6,7,8,9-hexahydro-2H-6,9-epiminocyclohepta[c]pyridazine-10-carboxamide], under 500 nM; with `O=C(Nc1cc(Cl)c(C(F)(F)F)cc1F)N1[C@@H]2CC[C@H]1c1n[nH]c(=O)cc1C2` [Compound 19, (6R,9S)-N-(5-Chloro-2-fluoro-4-(trifluoromethyl)phenyl)-3-oxo-3,5,6,7,8,9-hexahydro-2H-6,9-epiminocyclohepta[c]pyridazine-10-carboxamide], under 500 nM.
`O=C(Nc1cc(Cl)c(Cl)cc1F)N1[C@H]2CC[C@@H]1c1n[nH]c(=O)cc1C2` [Compound 20, (6S,9R)-N-(4,5-Dichloro-2-fluorophenyl)-3-oxo-3,5,6,7,8,9-hexahydro-2H-6,9-epiminocyclohepta[c]pyridazine-10-carboxamide]: the IC50 is under 500 nM.
As to `O=C(Nc1cc(Cl)c(Cl)cc1F)N1[C@H]2CC[C@@H]1c1c[nH]c(=O)nc1C2` [Compound 22, (5R,8S)-N-(4,5-Dichloro-2-fluorophenyl)-2-oxo-3,5,6,7,8,9-hexahydro-2H-5,8-epiminocyclohepta[d]pyrimidine-10-carboxamide], the concentration for half-maximal inhibition (IC50) is under 500 nM.

The assay is the same for the next values; noted with them: 1321N1-hrGPR65 cells, cAMP HTRF, assay pH 7.2; read-out: hGPR65 IC50 (Activity of selected compounds according to the invention).
On to `N#Cc1cc(F)c(NC(=O)N2C3CCC2c2n[nH]c(=O)cc2C3)cc1Cl` (racemic) [Compound 53, (±)-N-(5-Chloro-4-cyano-2-fluorophenyl)-3-oxo-3,5,6,7,8,9-hexahydro-2H-6,9-epiminocyclohepta[c]pyridazine-10-carboxamide], for which the IC50 fell in the range of 500 to 5000 nM.
As to `Cn1nc2c(cc1=O)CC1CCC2N1C(=O)Nc1cc(Cl)c(Cl)cc1F` (racemic) [Compound 83, (±)-N-(4,5-Dichloro-2-fluorophenyl)-2-methyl-3-oxo-3,5,6,7,8,9-hexahydro-2H-6,9-epiminocyclohepta[c]pyridazine-10-carboxamide], the IC50 lay in the range of 500 to 5000 nM.
On the same count and under the same terms, with `O=C(Nc1cc(Cl)c(C(F)(F)F)cc1F)N1C2CCC1[C@@H](O)c1c2ccnc1F` (mixture of isomers) [Compound 156, (±)-(9S)—N-(5-chloro-2-fluoro-4-(trifluoromethyl)phenyl)-1-fluoro-9-hydroxy-6,7,8,9-tetrahydro-5H-5,8-epiminocyclohepta[c]pyridine-10-carboxamide] the figure was 500 to 5000 nM; with `O=C(Nc1cc(Cl)c(Cl)cc1F)N1C2CCC1c1ncc(=O)[nH]c1C2` (racemic) [Compound 158, (±)—N-(4,5-Dichloro-2-fluorophenyl)-2-oxo-2,5,6,7,8,9-hexahydro-1H-5,8-epiminocyclohepta[b]pyrazine-10-carboxamide], over 5000 nM.
Consider `O=C(Nc1cc(Cl)c(C(F)(F)F)cc1F)N1C2CC[C@@H]1c1ccnc(F)c1C2O` (mixture of isomers) [Compound 204, (±)—(R)—N-(5-chloro-2-fluoro-4-(trifluoromethyl)phenyl)-1-fluoro-9-hydroxy-6,7,8,9-tetrahydro-5H-5,8-epiminocyclohepta[c]pyridine-10-carboxamide], for which the IC50 lay within 500 to 5000 nM.
As for `O=C(Nc1cc(Cl)c(Cl)cc1F)N1[C@@H]2CC[C@H]1[C@@H](F)c1ccnc(F)c12` (racemic) [Compound 284, ±(5-endo)-N-(4,5-dichloro-2-fluorophenyl)-1,5-difluoro-6,7,8,9-tetrahydro-5H-6,9-epiminocyclohepta[c]pyridine-10-carboxamide], the half-maximal inhibitory concentration (IC50) was in the range of 500 to 5000 nM.
The same measure, in the same setting: as for `CN(C(=O)N1C2CCC1c1ccc(=O)n(C)c1C2)c1cc(Cl)c(Cl)cc1F` (racemic) [Compound 288, (±)—N-(4,5-Dichloro-2-fluorophenyl)-N,1-dimethyl-2-oxo-2,5,6,7,8,9-hexahydro-1H-5,8-epiminocyclohepta[b]pyridine-10-carboxamide], the figure is over 5000 nM; as for `O=C(Nc1cc(Cl)c(Cl)cc1F)N1[C@@H]2CC[C@H]1c1n[nH]c(=O)cc1C2` [Compound 21, (6R,9S)-N-(4,5-Dichloro-2-fluorophenyl)-3-oxo-3,5,6,7,8,9-hexahydro-2H-6,9-epiminocyclohepta[c]pyridazine-10-carboxamide], 500 to 5000 nM.
